According to US20020091095A1, “Modulation of Fas and FasL expression” (priority 1999, published 2002):

Experiments:
Jurkat T leukemia cells = assay: Inhibition of Jurkat leukemia T cell proliferation (MTT reduction); format: cell-based, human; conditions: for % INHIBITION of cell proliferation: Jurkat, 48 h
Method: (§1) UMUC-3 bladder cancer cells were incubated for 48 hours with 0.00, 0.02 and 0.20 μg/ml of agonistic anti-Fas monoclonal antibodies (clone CH-11: Coulter-Immunotech, Marseille, France) +0 or 10 μg/ml of SEQ ID NO:5. Cell proliferation was measured using dimethylthiazol-diphenyltetrazolium (MTT) reduction (Mosman et al. J. Immunol. Methods 65:55, 1983). MTT was measured at a wavelength of 570 nm using a multiplate spectrophotometer reader (ELX800, Bio-TEK Instruments Inc., Winooski, Vt.).
Jurkat T leukemia cells were incubated for 48 hours with 0.00, 0.02 and 0.20 μg/ml of agonistic anti-Fas monoclonal antibodies (clone CH-11) +0 and 10 μg/ml of SEQ ID NO:5. Cell proliferation was measured as in Example 13.

Fas [1] = assay: Fas expression at the cell surface by flow cytometry, T-24 cells; format: cell-based, human; conditions: T-24 bladder cancer cells, 100 μg/ml sequence, 48 h, treated vs control cells
Method: (§2) Cancer cells and PBMCs were seeded in 6 well flat-bottom microplates and were maintained at 37° C. in a 5% CO2 atmosphere. Unless stated otherwise, 2×10^5 cells/ml were incubated for 48 h with 0 μg/ml (control) or 100 μg/ml ([…]) (treated) of the sequences.
(§3) Fas and FasL expression were measured by flow cytometry using anti-Fas FITC-conjugated monoclonal antibodies and anti-FasL PE-conjugated monoclonal antibodies in a FACScalibur Flow Cytometer (Becton Dickinson, San Jose, Calif., USA) using the CELLQuest program (Becton Dickinson).
(§4) Results are expressed as percentage (%) increase in the expression of Fas and of FasL measured on treated cells compared to control cells.
T-24 bladder cancer cells are a p53 mutated human cell line T-24 cells (1.0×10^5 cells/ml) were incubated with the 6 base sequences shown in Table 4.

Fas [2] = assay: Fas expression at the cell surface by flow cytometry, SK-OV-3 cells; format: cell-based, human; conditions: SK-OV-3 ovarian cancer cells, 100 μg/ml sequence, 48 h, treated vs control cells
Method: as §2, §3, §4
SK-OV-3 ovarian cancer cells are a p53 mutated, p21/waf-1/Cip deleted, p15^ink4B,p16^ink4 deleted metastatic human solid tumor model.

FasL [3] = assay: FasL expression at the cell surface by flow cytometry, MCF-7 cells; format: cell-based, human; conditions: MCF-7 breast cancer cells, 100 μg/ml sequence, 48 h, treated vs control cells
Method: as §2, §3, §4
MCF-7 human breast cancer cells are a caspase-3 negative, estrogen-dependent human solid tumor model.

Fas [4] = assay: Fas expression at the cell surface by flow cytometry, PBMCs; format: cell-based, human; conditions: 100 μg/ml sequence, 48 h, treated vs control cells
Method: Peripheral blood mononuclear cells (hereinafter, “PBMCs”) were isolated from human blood by Ficoll-Hypaque (Amersham Pharmacia Biotech, Baie d'Urfée, Québec, Canada) density gradient centrifugation.
as §2, §3, §4

FasL [5] = assay: FasL expression at the cell surface by flow cytometry, OVCAR-3 cells; format: cell-based, human; conditions: OVCAR-3 ovarian cancer cells, 100 μg/ml sequence, 48 h, treated vs control cells
Method: as §2, §3, §4
OVCAR-3 ovarian cancer cells are a p53 mutated, p21/waf-1/Cip deleted, metastatic human solid tumor model.

Fas [6] = assay: Fas expression at the cell surface by flow cytometry, UMUC-3 cells; format: cell-based, human; conditions: UMUC-3 bladder cancer cells, 100 μg/ml sequence, 48 h, treated vs control cells
Method: as §2, §3, §4
UMUC-3 bladder cancer cells are a P-glycoprotein overexpressing human cell line.

FasL [7] = assay: FasL expression at the cell surface by flow cytometry, LNCaP cells; format: cell-based, human; conditions: LNCaP prostate cancer cells, 100 μg/ml sequence, 48 h, treated vs control cells
Method: as §2, §3, §4
LNCaP prostate cancer cells are a TGF-beta 1 receptor negative, […], metastatic human solid tumor model.

[8] = test system: UMUC-3 bladder cancer cells; assay: Inhibition of UMUC-3 bladder cancer cell proliferation (MTT reduction); format: cell-based, human; conditions: for % INHIBITION of cell proliferation: UMUC-3, 48 h
Method: as §1

Fas [9] = assay: Inhibition of Fas expression on Jurkat cells by cycloheximide; format: cell-based, human; conditions: for % INCREASE of Fas: Jurkat cells
Method: as §3, §4
Jurkat human leukemia T cells were pre-incubated with 0.0 μg/ml (−CHX) or with 0.1 μg/ml of cycloheximide (+CHX) for 1 h. Ten μg/ml or 100 μg/ml of 6 base SEQ ID NO:5 (GGGTGG) was added to both the −CHX and +CHX cells and the incubation was continued for 24 hours and for 48 hours (Table 10).

[10] = test system: EL-4 murine T lymphoma cells; assay: EL-4 murine T lymphoma implanted in C57/BL6 lpr/lpr mice; format: in vivo
Method: EL-4 murine T lymphoma cells are implanted into C57/BL6 lpr/lpr (Fas negative mice). The mice are divided into 30 groups of 10 mice. On day 0, group 1 mice receive saline, group 2 mice receive 1, 10 or 100 mg/kg of SEQ. ID NO:5, group 3 mice receive 1, 10 or 100 mg/kg of SEQ. ID NO:16, group 4 receive 1, 10 or 100 mg/kg of SEQ. ID NO:17, group 5 mice receive 1, 10 or 100 mg/kg of SEQ. ID NO: 18, group 6 mice receive anti-Fas antibodies, group 7 mice receive 1, 10 or 100 mg/kg of SEQ. ID NO:5 +anti-Fas antibodies, group 8 mice receive 1, 10 or 100 mg/kg of SEQ. ID NO: 16 +anti-Fas antibodies, group 9 receive 1, 10 or 100 mg/kg of SEQ. ID NO:17 +anti-Fas antibodies, group 10 mice receive 1, 10 or 100 mg/kg of SEQ. ID NO:18 +anti-Fas antibodies. In these different groups, anti-Fas antibodies are administered at any dose in the range of about 0.003 to about 0.3 mg/kg. […] The efficacy of the SEQ. ID NO:5, the SEQ. ID NO: 16 and the SEQ. ID NO: 17 is dose-dependent.

[11] = 10 μg/ml sequence + anti-Fas antibodies 0.02 μg/ml
[12] = 10 μg/ml sequence, anti-Fas antibodies 0.0 μg/ml

Sequence: GGGTGG [SEQ ID NO:5]
- combined effect with agonistic anti-Fas antibodies on cell proliferation (Jurkat T leukemia cells; Jurkat T cells, 0.02 and 0.2 μg/ml anti-Fas antibodies, 10 μg/ml sequence): additive
- % INHIBITION of cell proliferation (Jurkat T leukemia cells; [11]): 28%
- % INHIBITION of cell proliferation (Jurkat T leukemia cells; 10 μg/ml sequence + anti-Fas antibodies 0.2 μg/ml): 48%
- % INHIBITION of cell proliferation (Jurkat T leukemia cells; [12]): 16%
- % INCREASE Fas (Fas [1]): 80%
- % INCREASE Fas (Fas [2]): 3%
- % INCREASE FasL (FasL [3]): 81%
- % INCREASE Fas (Fas [4]): 3%
- % INCREASE FasL (FasL [5]): 9%
- % INCREASE Fas (Fas [6]): 67%
- % INCREASE FasL (FasL [7]): −1%
- effect on the inhibitory activity of agonistic anti-Fas antibodies on cell proliferation ([8]; UMUC-3, 0.02 and 0.2 μg/ml anti-Fas antibodies, 10 μg/ml sequence): potentiated
- % INHIBITION of cell proliferation [8, 11]: 38%
- % INHIBITION of cell proliferation ([8]; 10 μg/ml sequence + anti-Fas antibodies 0.02 μg/ml (third column)): 44%
- % INHIBITION of cell proliferation [8, 12]: 23%
- Fas expression (Fas [9]; Jurkat T cells, 10 or 100 μg/ml, 24 h and 48 h): upregulated Fas expression
- % INCREASE of Fas (Fas [9]; 10 μg/ml sequence, 24 h, +CHX (0.1 μg/ml cycloheximide)): 5%
- % INCREASE of Fas (Fas [9]; 10 μg/ml sequence, 24 h, −CHX): 63%
- % INCREASE of Fas (Fas [9]; 10 μg/ml sequence, 48 h, +CHX (0.1 μg/ml cycloheximide)): 51%
- % INCREASE of Fas (Fas [9]; 10 μg/ml sequence, 48 h, −CHX): 91%
- % INCREASE of Fas (Fas [9]; 100 μg/ml sequence, 24 h, +CHX (0.1 μg/ml cycloheximide)): 22%
- % INCREASE of Fas (Fas [9]; 100 μg/ml sequence, 24 h, −CHX): 62%
- % INCREASE of Fas (Fas [9]; 100 μg/ml sequence, 48 h, +CHX (0.1 μg/ml cycloheximide)): 115%
- % INCREASE of Fas (Fas [9]; 100 μg/ml sequence, 48 h, −CHX): 150%
- efficacy, dose dependence ([10]; 1, 10 or 100 mg/kg): dose-dependent
- tumor mass ([10]; sequence 1, 10 or 100 mg/kg + anti-Fas antibodies, vs all other groups): least tumor mass
- tumor mass ([10]; single agent (sequence 1, 10 or 100 mg/kg, or anti-Fas antibodies) vs group 1 (saline)): less tumor mass
